Measured values from patent US20140256663A1, “Amphotericin Analogous Compounds and Pharmaceutical Compositions Containing Them” (CENTRO DE INVESTIGACION Y DE ESTUDIOS AVANZADOS DEL …, priority 2010, published 2014).
In brackets after ≈: the same amount, converted by molar mass.

Key:
[1] = 10 μM AmB; from Venegas et al.; cited from earlier work
[2] = system: Candida albicans DSY294; settings: Carreira E.; cited from earlier work
[3] = system: Candida albicans (10231); settings: Preobrazhenskaya M; cited from earlier work
[4] = physchem; settings: DMSO, organic solvent or mixture

C[C@@H]1[C@H](O)[C@@H](C)/C=C/C=C/C=C/C=C/C=C/C=C/C=C/[C@H](O[C@@H]2O[C@H](C)[C@@H](O)[C@H](N)[C@@H]2O)C[C@@H]2O[C@](O)(C[C@@H](O)C[C@@H](O)[C@H](O)CC[C@@H](O)C[C@@H](O)CC(=O)O[C@H]1C)C[C@H](O)[C@H]2C(=O)O [AmB, Amphotericin B]
Opening probability, channel type I [1]: 0.59%
Opening probability, channel type II [1]: 0.26%
Opening probability, channel type III [1]: 0.08%
Opening probability, channel type IV [1]: 4.06%
Opening probability, channel type V [1]: 1.81%
Opening probability, channel type VI [1]: 0.93%
MIC-Candida albicans DSY294 [2]: 0.0004 mM (≈ 0.37 µg/mL)
MIC50-Candida albicans (10231) [3]: 0.11 µg/mL (≈ 0.119 µM)
solubility [4]: ≤ 20 mM
